Legend:
[1] = tested on: Monocotyledonous and dicotyledonous test plants; assay: Herbicidal action before emergence of the plants (pre-emergence action); type: in vivo; details: evaluated after 3 weeks, nine-step scale; for pre-emergence action, Cyperus / pre-emergence action, Ipomoea / pre-emergence action, Setaria / pre-emergence action, Sinapis / pre-emergence action, Solanum / pre-emergence action, Stellaria: 2000 g/ha
Method in brief: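 Sprayed onto soil immediately after sowing as WP suspension or EC emulsion at 2 kg or 250 g a.i./ha (500 l water/ha). Greenhouse growth for 3 weeks, then scored on a nine-step scale (1 = complete damage, 9 = no effect).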

[2] = tested on: Monocotyledonous and dicotyledonous test plants; assay: Post-emergence herbicidal action; type: in vivo; details: evaluated after approximately 18 days; for Post-emergence action, Ipomoea / Post-emergence action, Lolium / Post-emergence action, Setaria / Post-emergence action, Sinapis / Post-emergence action, Solanum / Post-emergence action, Stellaria: 2000 g/ha, sprayed in 4- to 6-leaf stage, nine-step scale
Method in brief: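 Scoring uses a 1–9 scale (1 complete damage, 9 no effect), read roughly 18 days post-application. Compounds were applied post-emergence at 4–6 leaves, as aqueous suspension (25% wettable powder) or emulsion (25% emulsion concentrate), at 250 g or 2 kg a.i./ha in 500 l water/ha.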

Structure (SMILES) | pre-emergence action, Cyperus [1] | pre-emergence action, Ipomoea [1] | pre-emergence action, Setaria [1] | pre-emergence action, Sinapis [1] | pre-emergence action, Solanum [1] | pre-emergence action, Stellaria [1] | Post-emergence action, Ipomoea [2] | Post-emergence action, Lolium [2] | Post-emergence action, Setaria [2] | Post-emergence action, Sinapis [2] | Post-emergence action, Solanum [2] | Post-emergence action, Stellaria [2] | other results
Cc1nc(C(F)(F)F)ccc1C(=O)C1=C(O)C(C)CC2(CCC2)C1=O (stereo not shown) [Compound A2-C152] | 1 | 1 | 2 | 2 | 1 | 2 | 2 | 2 | 3 | 1 | 2 | 2 | 
COC(=O)C1(C)CCC(=O)C(C(=O)c2ccc(C(F)(F)F)nc2C)=C1O (stereo not shown) [Compound A2-B34] | 1 | 3 | 2 | 2 | 1 | 2 | 1 | 3 | 2 | 1 | 1 | 2 | 
COCc1nc(C(F)(F)F)ccc1C(=O)C1=C(O)C(C)(C(=O)OC)CCC1=O (stereo not shown) [Compound A8-B34] | 2 | 3 | 2 | 2 | 2 | 2 | 2 | 2 | 2 | 2 | 2 | 2 | 
Cc1nc(C(F)(F)F)ccc1C(=O)C1=C(O)C(C)CCC1=O (stereo not shown) [Compound A2-B2] | 1 | 1 | 1 | 1 | 1 | 2 | 1 | 2 | 2 | 1 | 2 | 2 | 
COCc1nc(C(F)(F)F)ccc1C(=O)C1=C(O)C(C)CCC1=O (stereo not shown) [Compound A8-B2] | 1 | 3 | 2 | 2 | 1 | 2 | 2 | 2 | 2 | 2 | 2 | 3 | 
COCc1nc(C(F)(F)F)ccc1C(=O)C1=C(O)C(C)(C)C(C)CC1=O (stereo not shown) [Compound A8-B156] |  |  |  |  |  |  |  |  |  |  |  |  | Pre-emergence action, Abutilon ([1]; Abutilon, 250 g/ha): 3; Pre-emergence action, Amaranthus ([1]; Amaranthus, 250 g/ha): 4; Pre-emergence action, Chenop. ([1]; Chenop., 250 g/ha): 2; Pre-emergence action, Digitaria ([1]; Digitaria, 250 g/ha): 3; Pre-emergence action, Echino. ([1]; Echino., 250 g/ha): 3; Pre-emergence action, Panicum ([1]; Panicum, 250 g/ha): 3; Post-emergence action: Abutilon (score, nine-step scale) ([2]; Abutilon, 250 g/ha, sprayed at 4- to 6-leaf stage): 1; Post-emergence action: Chenop. (score, nine-step scale) ([2]; Chenop., 250 g/ha, sprayed at 4- to 6-leaf stage): 1; Post-emergence action: Digitaria (score, nine-step scale) ([2]; Digitaria, 250 g/ha, sprayed at 4- to 6-leaf stage): 3; Post-emergence action: Echino. (score, nine-step scale) ([2]; Echino., 250 g/ha, sprayed at 4- to 6-leaf stage): 3; Post-emergence action: Ipopur. (score, nine-step scale) ([2]; Ipopur., 250 g/ha, sprayed at 4- to 6-leaf stage): 2; Post-emergence action: Panicum (score, nine-step scale) ([2]; Panicum, 250 g/ha, sprayed at 4- to 6-leaf stage): 2; Post-emergence action: Xanth. (score, nine-step scale) ([2]; Xanth., 250 g/ha, sprayed at 4- to 6-leaf stage): 2
CCc1nc(C(F)(F)F)ccc1C(=O)C1=C(O)CCCC1=O [Compound A3-B1] | 2 | 2 | 4 | 2 | 3 | 2 | 1 | 3 | 2 | 1 | 1 | 2 | 
CCN(CC)CC.Cc1nc(C(F)(F)F)ccc1C(=O)C1=C(O)CCCC1=O [Compound A2-B1100] | 1 | 3 | 1 | 2 | 1 | 2 | 2 | 2 | 3 | 1 | 1 | 2 | 
Cc1nc(C(F)(F)F)ccc1C(=O)C1=C(O)C(C(C)C)CC(C)C1=O (stereo not shown) [Compound A2-B49] | 2 | 4 | 2 | 2 | 1 | 2 | 2 | 2 | 2 | 1 | 2 | 2 | 
Cc1nc(C(F)(F)F)ccc1C(=O)C1=C(O)C(C)CC(C)C1=O (stereo not drawn) [A2-B46 (cis)] | 1 | 2 | 1 | 2 | 1 | 2 | 1 | 2 | 3 | 1 | 2 | 2 | 

From patent US6673938B1, “Substituted pyridine herbicides” (Syngenta Participations AG, priority 1998, dated 2004)
